Results taken from patent US20040102444A1, “Method for delivering drugs to the retina” (priority 2002, published 2004).

Tests used:
[1] = test system: other RTKs including VEGF receptors; assay: standard tyrosine kinase assay, other RTKs; type: biochemical
PDGF receptors = assay: cellular autophosphorylation assay, transfected Chinese hamster ovary cells; type: cell-based
Procedure: (§1) In vivo activity requires drugs to enter cells and therefore agents are tested in cellular autophosphorylation assays, using Chinese hamster ovary cells transfected with one of several RTK genes.

[2] = test system: other receptors tested including VEGF receptors; assay: as above
Procedure: as §1

insulin receptor = insulin receptor (Homo sapiens, UniProt P06213); assay: as above
Procedure: as §1

C57BL/6 mice = assay: VEGF-induced BRB breakdown measured with [3H]mannitol as tracer after topical administration; type: in vivo; conditions: suspension topically in one eye twice a day for 3 days prior to intraocular injection of VEGF
Procedure: Intraocular injections are performed with a Harvard pump microinjection apparatus and pulled glass micropipets. Each micropipet is calibrated to deliver 1 μL of vehicle upon depression of a foot switch. Mice are anesthetized with 25 mg/kg of ketamine and 4 mg/kg of xylazine, pupils are dilated with 1% tropicamide. Under a dissecting microscope, the sharpened tip of a micropipet is passed through the sclera just behind the limbus into the vitreous cavity, and the foot switch is depressed and 1 μL of 10^−6 M human VEGF (R&D Systems, Minneapolis, Minn.) is injected.
Six or 24 hours after intraocular injections, mice are given an intraperitoneal injection of 1 μCi/g body weight of [^3H]mannitol (New England Nuclear, Boston, Mass.). After one hour, mice are sacrificed and eyes are removed. The cornea and lens are removed and the entire retina is carefully dissected from the eyecup and placed within pre-weighed scintillation vials. […] All liquid is removed from the vials and remaining droplets are allowed to evaporate over 20 minutes. The vials are weighed and the tissue weights are recorded. One mL of NCSII solubilizing solution (Amersham, Chicago, Ill.) is added to each vial and the vials are incubated overnight in a 50° C. water bath. The solubilized tissue is brought to RT and decolorized with 20% benzoyl peroxide in toluene in a 50° C. water bath. […]

c-Kit = c-Kit (Homo sapiens, UniProt P10721); conditions: transfected Chinese hamster ovary cells
Flt-1 = target: T1, Flt-1 (Homo sapiens, UniProt P17948); assay: standard tyrosine kinase assay: phosphorylation of poly(GluTyr) by GST-fusion kinase domain; type: biochemical
T1 construct: GST-fusion proteins of the kinase domains of several tyrosine kinase receptors; GST
T1 sequence (P17948 827-1158 limits assumed): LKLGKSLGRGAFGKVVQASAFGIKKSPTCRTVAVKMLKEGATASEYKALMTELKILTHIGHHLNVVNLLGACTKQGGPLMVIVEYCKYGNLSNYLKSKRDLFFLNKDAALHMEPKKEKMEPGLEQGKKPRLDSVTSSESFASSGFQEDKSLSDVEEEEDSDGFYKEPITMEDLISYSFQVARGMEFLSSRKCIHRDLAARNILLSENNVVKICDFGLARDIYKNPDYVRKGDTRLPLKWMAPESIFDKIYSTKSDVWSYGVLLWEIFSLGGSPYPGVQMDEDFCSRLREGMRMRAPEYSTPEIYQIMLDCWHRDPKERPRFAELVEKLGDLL

VEGF receptors = assay: cellular autophosphorylation assay, transfected Chinese hamster ovary cells
Procedure: as §1

c-erbB2 = c-erbB2 (Homo sapiens, UniProt P04626); assay: as above
c-erbB2, sequence (P04626 23-1255): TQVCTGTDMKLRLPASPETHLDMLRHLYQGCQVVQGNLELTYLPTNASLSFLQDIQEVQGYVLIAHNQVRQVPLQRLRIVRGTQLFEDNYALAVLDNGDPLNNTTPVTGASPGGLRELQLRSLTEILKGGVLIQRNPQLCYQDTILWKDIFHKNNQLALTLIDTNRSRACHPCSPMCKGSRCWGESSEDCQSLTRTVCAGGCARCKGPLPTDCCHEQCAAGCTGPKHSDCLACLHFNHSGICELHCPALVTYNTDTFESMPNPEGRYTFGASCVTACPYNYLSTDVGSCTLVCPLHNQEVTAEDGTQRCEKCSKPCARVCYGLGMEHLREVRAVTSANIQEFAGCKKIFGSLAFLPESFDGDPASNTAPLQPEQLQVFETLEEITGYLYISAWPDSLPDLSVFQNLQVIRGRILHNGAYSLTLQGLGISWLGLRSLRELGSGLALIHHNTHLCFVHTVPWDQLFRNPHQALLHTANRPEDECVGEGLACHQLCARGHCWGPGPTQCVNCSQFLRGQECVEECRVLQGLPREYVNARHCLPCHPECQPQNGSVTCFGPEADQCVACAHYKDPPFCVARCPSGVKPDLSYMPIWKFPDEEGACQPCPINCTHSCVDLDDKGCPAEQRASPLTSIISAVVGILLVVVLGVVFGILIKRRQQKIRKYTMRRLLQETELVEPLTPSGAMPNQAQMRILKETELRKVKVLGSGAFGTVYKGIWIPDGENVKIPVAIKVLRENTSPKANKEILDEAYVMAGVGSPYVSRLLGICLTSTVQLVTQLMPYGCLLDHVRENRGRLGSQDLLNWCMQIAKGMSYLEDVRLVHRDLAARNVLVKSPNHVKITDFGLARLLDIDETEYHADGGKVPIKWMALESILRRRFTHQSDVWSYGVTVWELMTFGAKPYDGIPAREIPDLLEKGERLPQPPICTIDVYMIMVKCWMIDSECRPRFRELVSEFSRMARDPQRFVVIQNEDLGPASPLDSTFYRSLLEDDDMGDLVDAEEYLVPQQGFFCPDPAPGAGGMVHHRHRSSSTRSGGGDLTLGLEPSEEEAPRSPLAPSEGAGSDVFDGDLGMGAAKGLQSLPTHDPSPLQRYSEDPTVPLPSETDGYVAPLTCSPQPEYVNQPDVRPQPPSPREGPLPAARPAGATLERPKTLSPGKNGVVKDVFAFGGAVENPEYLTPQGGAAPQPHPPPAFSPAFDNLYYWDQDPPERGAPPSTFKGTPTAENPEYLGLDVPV
Procedure: as §1

insulin receptor, sequence (P06213 28-1382, species assumed): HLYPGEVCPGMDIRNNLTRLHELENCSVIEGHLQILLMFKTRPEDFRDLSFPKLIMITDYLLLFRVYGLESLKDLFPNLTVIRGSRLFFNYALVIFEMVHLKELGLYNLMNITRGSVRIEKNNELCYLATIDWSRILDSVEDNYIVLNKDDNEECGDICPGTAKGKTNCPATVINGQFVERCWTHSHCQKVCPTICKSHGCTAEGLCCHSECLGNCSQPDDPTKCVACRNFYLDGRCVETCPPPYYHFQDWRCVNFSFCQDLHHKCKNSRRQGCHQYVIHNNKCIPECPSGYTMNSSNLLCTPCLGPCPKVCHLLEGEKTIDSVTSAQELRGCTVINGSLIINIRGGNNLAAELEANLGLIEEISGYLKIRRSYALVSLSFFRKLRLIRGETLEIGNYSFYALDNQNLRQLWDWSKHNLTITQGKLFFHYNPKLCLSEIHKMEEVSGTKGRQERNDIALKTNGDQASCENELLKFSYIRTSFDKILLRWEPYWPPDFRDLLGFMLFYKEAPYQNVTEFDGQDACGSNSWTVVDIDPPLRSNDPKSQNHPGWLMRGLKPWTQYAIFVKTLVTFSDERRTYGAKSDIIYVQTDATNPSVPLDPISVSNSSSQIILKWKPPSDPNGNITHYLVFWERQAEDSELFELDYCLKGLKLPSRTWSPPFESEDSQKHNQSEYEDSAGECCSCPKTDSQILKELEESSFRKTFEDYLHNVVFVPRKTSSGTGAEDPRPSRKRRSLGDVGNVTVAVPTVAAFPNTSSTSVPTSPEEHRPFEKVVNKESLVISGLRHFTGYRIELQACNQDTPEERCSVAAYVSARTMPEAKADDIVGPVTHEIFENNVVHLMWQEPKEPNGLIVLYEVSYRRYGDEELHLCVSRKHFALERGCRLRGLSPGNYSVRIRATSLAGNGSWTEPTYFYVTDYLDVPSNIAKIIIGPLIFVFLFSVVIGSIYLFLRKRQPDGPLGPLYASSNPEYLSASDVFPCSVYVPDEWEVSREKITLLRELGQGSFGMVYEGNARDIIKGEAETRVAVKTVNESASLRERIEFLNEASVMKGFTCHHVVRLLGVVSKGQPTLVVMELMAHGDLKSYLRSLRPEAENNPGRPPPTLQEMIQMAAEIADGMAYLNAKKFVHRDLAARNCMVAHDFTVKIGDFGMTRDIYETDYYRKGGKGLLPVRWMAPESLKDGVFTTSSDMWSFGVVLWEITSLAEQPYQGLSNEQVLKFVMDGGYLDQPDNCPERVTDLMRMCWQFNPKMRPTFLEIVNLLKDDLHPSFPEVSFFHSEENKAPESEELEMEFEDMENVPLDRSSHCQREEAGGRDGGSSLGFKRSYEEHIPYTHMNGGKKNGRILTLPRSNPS
c-Kit, sequence (P10721 26-976): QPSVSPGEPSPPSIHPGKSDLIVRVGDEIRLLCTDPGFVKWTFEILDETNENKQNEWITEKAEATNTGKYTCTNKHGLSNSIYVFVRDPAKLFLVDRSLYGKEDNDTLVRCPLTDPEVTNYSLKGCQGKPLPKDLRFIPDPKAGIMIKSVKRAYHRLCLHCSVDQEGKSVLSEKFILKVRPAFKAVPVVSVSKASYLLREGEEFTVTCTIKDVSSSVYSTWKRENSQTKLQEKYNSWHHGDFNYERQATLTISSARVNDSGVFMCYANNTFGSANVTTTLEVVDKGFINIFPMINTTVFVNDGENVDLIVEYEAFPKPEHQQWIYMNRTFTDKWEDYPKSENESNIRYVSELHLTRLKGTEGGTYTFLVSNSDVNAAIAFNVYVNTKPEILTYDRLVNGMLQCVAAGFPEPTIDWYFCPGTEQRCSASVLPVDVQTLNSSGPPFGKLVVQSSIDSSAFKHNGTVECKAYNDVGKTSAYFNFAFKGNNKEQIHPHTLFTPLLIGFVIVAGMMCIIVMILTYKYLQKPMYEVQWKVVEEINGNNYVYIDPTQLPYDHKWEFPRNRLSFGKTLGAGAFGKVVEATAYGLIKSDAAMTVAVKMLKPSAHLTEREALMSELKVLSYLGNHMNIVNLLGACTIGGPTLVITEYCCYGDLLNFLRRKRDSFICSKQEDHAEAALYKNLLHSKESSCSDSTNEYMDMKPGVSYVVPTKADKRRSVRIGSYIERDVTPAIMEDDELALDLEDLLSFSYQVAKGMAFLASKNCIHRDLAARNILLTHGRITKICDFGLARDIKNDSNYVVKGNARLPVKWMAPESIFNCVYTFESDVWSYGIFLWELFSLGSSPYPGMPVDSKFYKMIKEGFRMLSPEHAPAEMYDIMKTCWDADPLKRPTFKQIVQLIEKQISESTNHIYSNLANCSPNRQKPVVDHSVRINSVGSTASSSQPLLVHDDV

Structure (SMILES)	inhibitory activity of other RTKs including VEGF receptors [1]	inhibition of autophosphorylation of PDGF receptors (PDGF receptors)	inhibition of autophosphorylation of other receptors tested including VEGF receptors [2]	inhibition of autophosphorylation of insulin receptor (insulin receptor)	RRLR compared to contralateral eyes in the same mice (C57BL/6 mice)	inhibition of autophosphorylation of c-Kit (c-Kit)	inhibition of phosphorylation by the kinase domain of human VEGF receptor 1 (Flt-1)	inhibition of autophosphorylation of VEGF receptors (VEGF receptors)	inhibition of autophosphorylation of c-erbB2 (c-erbB2)
Cc1ccc(NC(=O)c2ccccc2)cc1Nc1nccc(-c2cccnc2)n1 [CGP 53 716]	little or no inhibitory activity	potent inhibitors	poor inhibitors						
Cc1ccc(NC(=O)c2ccc(CN3CCN(C)CC3)cc2)cc1Nc1nccc(-c2cccnc2)n1 [CGP 57 148]	little or no inhibitory activity	potent inhibitors	poor inhibitors						
Clc1ccc(Nc2nnc(Cc3ccncc3)c3ccccc23)cc1 [PTK 787]		inhibits autophosphorylation		poor inhibitor	not a significant difference	inhibits autophosphorylation	good inhibitor	inhibits autophosphorylation	poor inhibitor
